This note sets out measurements from paper PMC9075979 (Molecular Therapy, 2022).

The target of this assay is Omicron variant RBD or S1 domains-hACE2 binding (Homo sapiens, UniProt Q9BYF1).
Omicron variant RBD or S1 domains-hACE2 binding, sequence (Q9BYF1 18-740, stated change not applied): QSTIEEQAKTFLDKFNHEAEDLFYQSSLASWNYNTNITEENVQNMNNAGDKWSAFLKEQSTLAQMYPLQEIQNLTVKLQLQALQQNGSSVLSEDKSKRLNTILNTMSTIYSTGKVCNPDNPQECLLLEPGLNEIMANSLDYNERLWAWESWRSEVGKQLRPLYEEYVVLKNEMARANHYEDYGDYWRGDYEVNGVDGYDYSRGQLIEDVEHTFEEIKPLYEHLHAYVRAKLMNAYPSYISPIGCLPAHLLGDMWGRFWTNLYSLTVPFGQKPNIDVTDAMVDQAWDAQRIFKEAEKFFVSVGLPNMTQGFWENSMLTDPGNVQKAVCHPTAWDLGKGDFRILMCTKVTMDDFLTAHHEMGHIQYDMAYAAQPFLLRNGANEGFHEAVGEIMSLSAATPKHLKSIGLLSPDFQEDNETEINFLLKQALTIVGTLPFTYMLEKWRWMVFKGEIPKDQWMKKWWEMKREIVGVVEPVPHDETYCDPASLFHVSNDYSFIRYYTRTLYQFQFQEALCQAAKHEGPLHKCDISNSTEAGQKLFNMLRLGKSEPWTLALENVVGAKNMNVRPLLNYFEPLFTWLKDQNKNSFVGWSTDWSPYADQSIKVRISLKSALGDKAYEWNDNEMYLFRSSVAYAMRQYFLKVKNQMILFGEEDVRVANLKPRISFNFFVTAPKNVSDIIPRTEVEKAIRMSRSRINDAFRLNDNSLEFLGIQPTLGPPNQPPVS

As for `c1ccc(-c2ccc(C(c3ccccc3)n3ccnc3)cc2)cc1` (stereo not shown) [bifonazole], the “binding of Omicron variant RBD or S1 bioreporters to hACE2” value is given as “significantly reduced binding”.
